Measurements as given in ChEMBL document CHEMBL1201862, “PubChem BioAssay data set” (2004).
Active and inactive are the calls of the source.

Columns and labels:
[1] = tested on: H9c2; test: cells; type: functional, cell-based; settings: Rattus norvegicus, H9c2, Myocardium;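 further: confirmatory concentration-response retest of ultra-high-throughput screening hits for modulation of myocardial damage; cell death induced by hydrogen peroxide oxidative stress; compound pretreatment for 60 min then peroxide exposure for 2 h; potency is for protecting the cells against peroxide damage rather than for killing them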
[2] = A549 cell cytotoxicity, dose response, cytotoxicity control, plate reader, cherry-pick, antagonist series (AID 743412); type: functional, cell-based
[3] = HepG2 cell cytotoxicity, dose response, cytotoxicity control, plate reader, cherry-pick, antagonist series (AID 743416); type: functional, cell-based
[4] = LGR2 antagonists, dose response, cell-based, HEK293, CRE-luciferase reporter, cherry pick, set 2 (AID 743343); type: functional;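 further: transfected cells were stimulated with diluted bursicon conditioned medium after compound addition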
[5] = molecular target: T1, Disintegrin and metalloproteinase domain-containing protein 17 (Homo sapiens, UniProt P78536); test: exosite inhibitors of ADAM17, dose response, biochemical (AID 743260)
[6] = MC4R antagonists, dose response, counter-screen for LGR2 antagonist project, cell-based, plate reader, cherry pick (AID 743444); type: functional;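 further: transfected HEK 293 cells stimulated with alpha-MSH peptide; potency of inhibitors of the alpha-MSH evoked signal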
[7] = ADAM10 protease inhibitors, dose response, selectivity assay for ADAM17 exosite inhibitor project, biochemical, FRET peptide substrate, recombinant human ADAM10 (AID 743259);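 further: ADAM10 enzyme cleaving a FRET peptide substrate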
[8] = HEK293 cell cytotoxicity, dose response, cytotoxicity control, plate reader, cherry-picked samples (AID 743446); type: functional, cell-based
[9] = Shn3 3'UTR reporter inhibitors, dose response, cell-based, Clone20 osteoblasts, firefly luciferase, cherry-picked (AID 624132); type: functional;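 further: firefly luciferase luminescence from reporter carrying the Shn3 3'UTR in osteoblasts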
[10] = HepG2 cell cytotoxicity, dose response, cytotoxicity control for Shn3 inhibitor project, CellTiter-Glo, cherry-picked (AID 624134); type: functional, cell-based
[11] = control 3'UTR Renilla luciferase suppression, dose response, counter-screen for Shn3 inhibitor project, cell-based, Clone20-Shn3RL, cherry-picked (AID 624133); type: functional
[12] = molecular target: T2, DNA repair protein RAD52 homolog (Homo sapiens, UniProt P43351); type: functional, biochemical
T2 sequence (P43351 whole entry): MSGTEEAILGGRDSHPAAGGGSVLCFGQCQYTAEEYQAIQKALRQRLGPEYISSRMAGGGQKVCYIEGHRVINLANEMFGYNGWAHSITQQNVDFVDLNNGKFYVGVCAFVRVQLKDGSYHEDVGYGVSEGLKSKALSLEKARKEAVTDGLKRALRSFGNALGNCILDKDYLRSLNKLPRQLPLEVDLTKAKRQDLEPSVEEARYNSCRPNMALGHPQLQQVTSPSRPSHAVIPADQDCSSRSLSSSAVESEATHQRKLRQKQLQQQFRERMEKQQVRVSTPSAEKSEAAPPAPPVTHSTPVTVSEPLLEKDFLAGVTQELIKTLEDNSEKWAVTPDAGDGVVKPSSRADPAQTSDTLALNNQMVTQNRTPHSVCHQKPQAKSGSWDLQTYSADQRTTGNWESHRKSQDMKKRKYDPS

[13] = tested on: HEK293; test: cells; settings: Homo sapiens
[14] = tested on: HEK293; test: cells; settings: Homo sapiens; remark: listed apart in the source
[15] = cells; type: functional, cell-based
[16] = molecular target: T3, Nuclear receptor subfamily 0 group B member 1 (Homo sapiens, UniProt P51843); type: functional, cell-based;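 further: HEK293T cells transfected with SF-1 and DAX-1 plus StAR promoter luciferase reporter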
T3 sequence (P51843 whole entry): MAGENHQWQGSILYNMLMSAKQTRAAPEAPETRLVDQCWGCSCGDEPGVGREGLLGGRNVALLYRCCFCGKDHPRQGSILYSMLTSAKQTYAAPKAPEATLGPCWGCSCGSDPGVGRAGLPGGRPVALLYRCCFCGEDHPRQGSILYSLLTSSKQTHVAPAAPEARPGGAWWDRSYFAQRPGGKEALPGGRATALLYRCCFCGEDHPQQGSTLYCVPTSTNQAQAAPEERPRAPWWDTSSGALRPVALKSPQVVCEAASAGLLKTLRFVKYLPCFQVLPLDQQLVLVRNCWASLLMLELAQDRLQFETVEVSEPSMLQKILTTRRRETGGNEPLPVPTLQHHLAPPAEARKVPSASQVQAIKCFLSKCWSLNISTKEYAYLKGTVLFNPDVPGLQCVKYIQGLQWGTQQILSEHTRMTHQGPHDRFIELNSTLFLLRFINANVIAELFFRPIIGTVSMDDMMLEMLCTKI

[17] = molecular target: Beta-lactamase (Salmonella choleraesuis (strain SC-B67), UniProt Q5J463); test: Epi-absorbance-based counterscreen for selective VIM-2 inhibitors: dose response biochemical high throughput screening assay to identify inhibitors of TEM-1 serine-beta-lactamase.
[18] = molecular target: T4, Beta-lactamase (Pseudomonas aeruginosa, UniProt Q79MP6); test: IMP-1 metallo-beta-lactamase inhibitors, dose response, selectivity assay for VIM-2 inhibitor project, biochemical, epi-absorbance (AID 1920)
[19] = molecular target: T4, Beta-lactamase; test: […] counterscreen for selective VIM-2 inhibitors: dose response biochemical high throughput screening assay to identify inhibitors of IMP-1 metallo-beta-lactamase.
[20] = molecular target: Cytochrome P450 2C19 (Homo sapiens, UniProt P33261); test: Cytochrome panel assay with activity outcomes. Panel member name: p450-cyp2c19 Compounds with AC50 equal or less than 10 uM are considered active; type: functional; settings: read-out: AC50
[21] = molecular target: T5, Cytochrome P450 1A2 (Homo sapiens, UniProt P05177);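 further: PubChem cytochrome P450 panel assay, CYP1A2 panel member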
T5 sequence (P05177 whole entry): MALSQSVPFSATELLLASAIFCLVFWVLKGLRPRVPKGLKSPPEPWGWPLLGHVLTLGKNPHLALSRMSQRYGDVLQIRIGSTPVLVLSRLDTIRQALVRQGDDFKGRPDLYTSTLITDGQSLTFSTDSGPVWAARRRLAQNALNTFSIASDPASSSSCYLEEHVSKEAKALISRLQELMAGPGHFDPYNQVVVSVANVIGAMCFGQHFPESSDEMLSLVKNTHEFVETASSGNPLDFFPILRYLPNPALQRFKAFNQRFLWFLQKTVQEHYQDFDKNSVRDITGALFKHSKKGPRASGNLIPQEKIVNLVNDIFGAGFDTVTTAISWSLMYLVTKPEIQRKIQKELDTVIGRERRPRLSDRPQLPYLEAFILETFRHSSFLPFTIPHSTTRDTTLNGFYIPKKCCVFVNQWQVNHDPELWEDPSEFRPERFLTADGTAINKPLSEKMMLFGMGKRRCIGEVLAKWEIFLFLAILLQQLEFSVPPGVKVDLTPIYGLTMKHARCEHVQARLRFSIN

[22] = molecular target: Cytochrome P450 3A4 (Homo sapiens, UniProt P08684);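 further: CYP3A4 tested as one member of a cytochrome P450 panel screen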
[23] = molecular target: T6, fMet-Leu-Phe receptor (Homo sapiens, UniProt P21462); test: FPR ligands, dose response (AID 519); type: functional
T6 sequence (P21462 whole entry): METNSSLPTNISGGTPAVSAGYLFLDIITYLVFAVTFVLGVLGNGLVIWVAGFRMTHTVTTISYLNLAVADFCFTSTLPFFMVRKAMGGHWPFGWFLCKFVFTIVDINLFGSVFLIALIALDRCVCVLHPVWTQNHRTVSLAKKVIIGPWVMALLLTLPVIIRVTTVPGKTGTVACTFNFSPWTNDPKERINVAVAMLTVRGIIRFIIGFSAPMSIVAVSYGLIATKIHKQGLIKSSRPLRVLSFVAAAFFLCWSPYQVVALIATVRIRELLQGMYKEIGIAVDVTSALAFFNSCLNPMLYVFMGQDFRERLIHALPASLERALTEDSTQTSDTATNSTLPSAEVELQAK

[24] = molecular target: Luciferin 4-monooxygenase (Photinus pyralis, UniProt P08659); test: firefly luciferase enzyme inhibitors, dose response, biochemical, luminescence (AID 1891)
[25] = Luminescence Cell-Based Dose Confirmation HTS to Identify Inhibitors of Platelet Dense Granule Release. [Related pubchem assays: 1663 (Primary HTS), 1678 (Summary of Project)]; type: functional
[26] = molecular target: Major prion protein (Homo sapiens, UniProt P04156); type: functional, cell-based
[27] = cells
[28] = growth suppression of PTEN-null colon cells, dose response, cell-based, HCT116 PTEN knockout (AID 1047); type: functional;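 further: HCT116 colon tumor cells with PTEN knocked out; cells exposed to compound for 60 hours before readout; potency for loss of cell viability measured by luminescence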
[29] = growth suppression of beta-catenin-knockout colon cells, dose response, cell-based, HCT116, human colon tumor (AID 1045); type: functional;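 further: HCT116 colon tumor cells with beta catenin knocked out; cells exposed to compound for 60 hours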
[30] = molecular target: T1, Disintegrin and metalloproteinase domain-containing protein 17; test: ADAM17 protease inhibitors, dose response, counter-screen for ADAM10 exosite inhibitor project, biochemical, quenched FRET substrate (AID 743253)
[31] = cells; type: functional, cell-based; remark: listed apart in the source
[32] = molecular target: T7, Trace amine-associated receptor 1 (Homo sapiens, UniProt Q96RJ0); test: Fluorescence-based cell-based high throughput dose response assay to identify agonists of the human trace amine associated receptor 1 (TAAR1).; type: functional
T7 sequence (Q96RJ0 whole entry): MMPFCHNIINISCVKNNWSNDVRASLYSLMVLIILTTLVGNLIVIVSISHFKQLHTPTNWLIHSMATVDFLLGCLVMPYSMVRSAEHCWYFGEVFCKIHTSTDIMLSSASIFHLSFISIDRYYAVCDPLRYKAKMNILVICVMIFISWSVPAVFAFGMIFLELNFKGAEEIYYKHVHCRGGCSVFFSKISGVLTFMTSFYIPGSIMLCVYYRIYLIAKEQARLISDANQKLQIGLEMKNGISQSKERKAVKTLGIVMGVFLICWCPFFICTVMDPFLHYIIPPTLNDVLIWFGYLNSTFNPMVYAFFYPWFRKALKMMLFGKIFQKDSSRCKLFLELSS

[33] = molecular target: T7, Trace amine-associated receptor 1; test: Counterscreen for agonists of the human trace amine associated receptor 1 (hTAAR1): Fluorescence-based cell-based high throughput dose response assay to identify hTAAR1 agonist that also desensitize TAAR1 receptor response.; type: functional
[34] = cells; type: functional, cell-based; remark: listed apart in the source

Question: Which results are given for `CCc1nc2ccc(C(=O)Nc3cc(-c4ccccc4)ccc3OC)cn2c1N(C)Cc1nccs1`?
Answer: IC50 [1]: > 79 µM (inactive); AC50 [2]: 21.6 µM (active); AC50 [3]: 51.1 µM (active); AC50 [4]: 9.18 µM (active); IC50 [5]: > 69.5 µM (inactive); AC50 [6]: 18.4 µM (active); IC50 [7]: > 69.5 µM (inactive); AC50 [8]: 18.1 µM (active)

Question: Which AC50 [9] does the source give for `CN(C)CCNC(=O)c1ccc(Cl)c2cc3ccccc3nc12` here?
Answer: The AC50 was 9.85 µM (active).

Question: What about the AC50 [10] of the same compound?
Answer: Its AC50 is 4.37 µM (active).

Question: And the AC50 [11]?
Answer: The AC50 was 24 µM (active).

Question: What about the AC50 [12] of the same compound?
Answer: The AC50 was 846 nM (active).

Question: What about the EC50 [13] of the same compound?
Answer: Its EC50 is > 2.21 µM (active).

Question: And the EC50 [14]?
Answer: The EC50 was > 59.7 µM (inactive).

Question: Which results are given for `Cc1ccc2c(CN(C)Cc3ccccc3)cc(=O)oc2c1`?
Answer: IC50 [15]: > 67.6 µM (inactive); IC50 [16]: > 67.6 µM (inactive)

Question: Which results are given for `CC(C)(C)C(=O)Nc1nnc(SCC(=O)NCc2cccs2)s1`?
Answer: IC50 [17]: > 59.6 µM (inactive); IC50 [18]: > 59.6 µM (inactive); IC50 [19]: > 59.6 µM (inactive); AC50 [20]: 3.16 µM (inconclusive); AC50 [21]: 22.4 µM (inconclusive); AC50 [22]: 25.1 µM (inconclusive)

Question: For `Cc1cccc(NC(=O)c2ccc3c(=O)n4c(nc3c2)CCCCC4)n1`, which IC50 [15] is on record?
Answer: The IC50 was > 67.5 µM (inactive).

Question: And the IC50 [16]?
Answer: Its IC50 is > 0.834 µM (active).

Question: With `C=CCN1C(=O)C2(C(C(=O)c3ccc4c(c3)OCCO4)=C(O)C(=O)N2CCCOC)c2ccccc21` (stereo not drawn) as the compound, how does the Ki [23] read?
Answer: Its Ki is > 66.7 µM (inactive).

Question: What does the source list for `COC(=O)CSc1nc(COc2ccccc2)nc2ccccc12`?
Answer: EC50 [24]: > 112 µM (not active); EC50 [25]: > 112 µM (not active); IC50 [26]: 8.48 µM (active); IC50 [27]: > 138 µM (inactive)

Question: With `N#Cc1c(Cl)nc(N/N=C/c2ccccc2)c(Cl)c1Cl` as the compound, how does the EC50 [28] read?
Answer: The EC50 was 12.1 µM (active).

Question: And the EC50 [29]?
Answer: Its EC50 is 6.92 µM (active).

Question: And the IC50 [30]?
Answer: Its IC50 is > 69.5 µM (inactive).

Question: Which IC50 [31] does the source give for `COc1cccc(Nc2nc(C(C)N)cs2)n1` (stereo not drawn) here?
Answer: The IC50 was > 29.9 µM (inactive).

Question: And the EC50 [32]?
Answer: The EC50 was 1.17 µM (active).

Question: What about the IC50 [33] of the same compound?
Answer: Its IC50 is 4.76 µM (active).

Question: What about the EC50 [34] of the same compound?
Answer: The EC50 was > 29.9 µM (inactive).

Question: With `C/C(NCc1cccnc1)=C1/C(=O)NC(=O)N(c2ccc(C)cc2)C1=O` as the compound, how does the IC50 [26] read?
Answer: Its IC50 is 10.2 µM (inactive).

Question: What about the IC50 [27] of the same compound?
Answer: The IC50 was > 138 µM (inactive).
